Experimental data: patent US11254690B2, “PTEFb inhibiting macrocyclic compounds” (BAYER AKTIENGESELLSCHAFT, priority 2017, dated 2022)
Where two headings read alike, the source gives them in different places.

Experiments:
CDK9/CycT1 = target: T1, CDK9/CycT1 (Homo sapiens, UniProt P50750); experiment: CDK9/CycT1 high ATP kinase assay (TR-FRET, 2 mM ATP); assay type: biochemical; conditions: for IC50: 2 mM ATP, Method 1b, lower limit for IC50s about 1-2 nM; for Selectivity high ATP CDK9 over high ATP CDK2: IC50 (high ATP CDK2)/IC50 (high ATP CDK9): ratio from Methods 1b and 2b, minimal values for IC50s near the assay limit
T1 construct: Recombinant full-length His-tagged human CDK9 and CycT1; His; purchased Life Technologies PV4131; host or cells: insect cells
Description: 1b. CDK9/CycT1 High ATP Kinase Assay
CDK9/CycT1-inhibitory activity of compounds of the present invention at a high ATP concentration after preincubation of enzyme and test compounds was quantified employing the CDK9/CycT1 TR-FRET assay as described in the following paragraphs.
Recombinant full-length His-tagged human CDK9 and CycT1, expressed in insect cells and purified by Ni-NTA affinity chromatography, were purchased from Life Technologies (Cat. No PV4131). As substrate for the kinase reaction biotinylated peptide biotin-Ttds-YISPLKSPYKISEG (C-terminus in amide form) was used which can be purchased e.g. form the company JERINI peptide technologies (Berlin, Germany).
(§1) For the assay 50 nl of a 100 fold concentrated solution of the test compound in DMSO was pipetted into either a black low volume 384 well microtiter plate or a black 1536 well microtiter plate (both Greiner Bio-One, Frickenhausen, Germany), 2 μl of a solution of CDK9/CycT1 in aqueous assay buffer [50 mM Tris/HCl pH 8.0, 10 mM MgCl2, 1.0 mM dithiothreitol, 0.1 mM sodium ortho-vanadate, 0.01% (v/v) Nonidet-P40 (Sigma)] were added and the mixture was incubated for 15 min at 22° C. to allow pre-binding of the test compounds to the enzyme before the start of the kinase reaction. […] The concentration of CDK9/CycT1 was adjusted depending of the activity of the enzyme lot and was chosen appropriate to have the assay in the linear range, typical concentrations were in the range of 0.5 μg/ml. The reaction was stopped by the addition of 3 μl of a solution of TR-FRET detection reagents (0.33 μM streptavidine-XL665 [Cisbio Bioassays, Codolet, France] and 1.67 nM anti-RB(pSer807/pSer811)-antibody from BD Pharmingen [#558389] and 2 nM LANCE EU-W1024 labeled anti-mouse IgG antibody [Perkin-Elmer, product no. AD0077]) in an aqueous EDTA-solution (167 mM EDTA, 0.2% (w/v) bovine serum albumin in 100 mM HEPES pH 7.5).
(§2) The resulting mixture was incubated 1 h at 22° C. to allow the formation of complex between the phosphorylated biotinylated peptide and the detection reagents. Subsequently the amount of phosphorylated substrate was evaluated by measurement of the resonance energy transfer from the Eu-chelate to the streptavidine-XL. Therefore, the fluorescence emissions at 620 nm and 665 nm after excitation at 350 nm was measured in a TR-FRET reader, e.g. a Pherastar (BMG Labtechnologies, Offenburg, Germany) or a Viewlux (Perkin-Elmer). The ratio of the emissions at 665 nm and at […] was taken as the measure for the amount of phosphorylated substrate. The data were normalised (enzyme reaction without inhibitor=0% inhibition, all other assay components but no enzyme=100% inhibition).

A2780 cells = experiment: Proliferation assay, A2780; assay type: cell-based, human; conditions: 72-hour exposure, Cell Titre-Glo, read-out: Inhibition of A2780 cell proliferation IC50
Description: Cultivated tumour cells (HeLa, human cervical tumour cells, ATCC CCL-2; NCI-H460, human non-small cell lung carcinoma cells, ATCC HTB-177; DU 145, hormone-independent human prostate carcinoma cells, ATCC HTB-81; HeLa-MaTu-ADR, multidrug-resistant human cervical carcinoma cells, EPO-GmbH Berlin; Caco-2, human colorectal carcinoma cells, ATCC HTB-37; B16F10, mouse melanoma cells, ATCC CRL-6475) were plated at a density of 5,000 cells/well (DU145, HeLa-MaTu-ADR), 3,000 cells/well (NCI-H460, HeLa), 1,500 cells/well (Caco-2), or 1,000 cells/well (B16F10) in a 96-well multititer plate in 200 μL of their respective growth medium supplemented 10% fetal calf serum. After 24 hours, the cells of one plate (zero-point plate) were stained with crystal violet (see below), while the medium of the other plates was supplemented with the test substances in various concentrations (0 μM, as well as in the range of 0.0001-10 μM; the final concentration of the solvent dimethyl sulfoxide was adjusted to 0.1%) using a Hewlett-Packard HP D300 Digital Dispenser. The cells were incubated for 4 days in the presence of test substances. Cell proliferation was determined by staining the cells with crystal violet: the cells were fixed by adding 20 μl/measuring point of an 11% glutaric aldehyde solution for 15 minutes at room temperature. After three washing cycles of the fixed cells with water, the plates were dried at room temperature. The cells were stained by adding 100 μl/measuring point of a 0.1% crystal violet solution (pH 3.0). After three washing cycles of the stained cells with water, the plates were dried at room temperature. The dye was dissolved by adding 100 μl/measuring point of a 10% acetic acid solution. The extinction was determined by photometry at a wavelength of 595 nm. The change of cell number, in percent, was calculated by normalization of the measured values to the extinction values of the zero-point plate (=0%) and the extinction of the untreated ([…]) cells (=100%). The IC50 values (inhibitory concentration at 50% of maximal effect) were determined by means of a 4 parameter fit. A2780 human ovarian carcinoma cells (ECACC #93112519) and non-adherent MOLM-13 human acute myeloid leukemia cells (DSMZ ACC 554) were seeded at a density of 3,000 cell/well (A2780) or 5,000 cells/well (MOLM-13) in a 96-well multititer plate in 150 μL of growth medium supplemented 10% fetal calf serum. After 24 hours, cell viability of one plate (zero-point plate) was determined with the Cell Titre-Glo Luminescent Cell Viability Assay (Promega), while the medium of the other plates was supplemented with the test substances in various concentrations (0 μM, as well as in the range of 0.0001-10 μM; the final concentration of the solvent dimethyl sulfoxide was adjusted to 0.1%) using a Hewlett-Packard HP D300 Digital Dispenser. Cell viability was assessed after 72-hour exposure with the Cell Titre-Glo Luminescent Cell Viability Assay (Promega). IC50 values (inhibitory concentration at 50% of maximal effect) were determined by means of a 4 parameter fit on measurement data which were normalized to vehicle (DMSO) treated cells (=100%) and measurement readings taken immediately before compound exposure (=0%).

CDK2/CycE = target: T2, CDK2/CycE (Homo sapiens, UniProt P24941); experiment: CDK2/CycE high ATP kinase assay (TR-FRET, 2 mM ATP); assay type: biochemical; conditions: Method 2b
T2 construct: GST; purchased ProQinase GmbH (Freiburg, Germany); host or cells: insect cells (Sf9)
Description: 2b. CDK2/CycE High ATP Kinase Assay
CDK2/CycE-inhibitory activity of compounds of the present invention at 2 mM adenosine-tri-phosphate (ATP) was quantified employing the CDK2/CycE TR-FRET (TR-FRET=Time Resolved Fluorescence Energy Transfer) assay as described in the following paragraphs.
Recombinant fusion proteins of GST and human CDK2 and of GST and human CycE, expressed in insect cells (Sf9) and purified by Glutathion-Sepharose affinity chromatography, were purchase from ProQinase GmbH (Freiburg, Germany). As substrate for the kinase reaction biotinylated peptide biotin-Ttds-YISPLKSPYKISEG (C-terminus in amid form) was used which can be purchased e.g. form the company JERINI peptide technologies (Berlin, Germany).
as §1, with “CDK2/CycE” for “CDK9/CycT1”, “about 10 ng/ml.” for “in the range of 0.5 μg/ml.”, “(0.333” for “(0.33”, “AD0077, as an alternative a Terbium-cryptate-labeled anti-mouse IgG antibody from Cisbio Bioassays can be used])” for “AD0077])”
as §2

T1 sequence (P50750 whole entry): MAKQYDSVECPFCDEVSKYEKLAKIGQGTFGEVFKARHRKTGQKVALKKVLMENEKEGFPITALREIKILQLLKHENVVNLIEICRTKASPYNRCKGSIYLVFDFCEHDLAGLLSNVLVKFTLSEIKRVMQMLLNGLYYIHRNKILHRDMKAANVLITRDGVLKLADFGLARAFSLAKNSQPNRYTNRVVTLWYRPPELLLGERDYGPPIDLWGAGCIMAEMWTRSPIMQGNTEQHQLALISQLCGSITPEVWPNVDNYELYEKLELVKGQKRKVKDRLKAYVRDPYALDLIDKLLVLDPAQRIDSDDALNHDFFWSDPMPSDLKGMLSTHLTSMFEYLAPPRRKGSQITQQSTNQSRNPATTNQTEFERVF
T1 sequence (O60563 whole entry partner): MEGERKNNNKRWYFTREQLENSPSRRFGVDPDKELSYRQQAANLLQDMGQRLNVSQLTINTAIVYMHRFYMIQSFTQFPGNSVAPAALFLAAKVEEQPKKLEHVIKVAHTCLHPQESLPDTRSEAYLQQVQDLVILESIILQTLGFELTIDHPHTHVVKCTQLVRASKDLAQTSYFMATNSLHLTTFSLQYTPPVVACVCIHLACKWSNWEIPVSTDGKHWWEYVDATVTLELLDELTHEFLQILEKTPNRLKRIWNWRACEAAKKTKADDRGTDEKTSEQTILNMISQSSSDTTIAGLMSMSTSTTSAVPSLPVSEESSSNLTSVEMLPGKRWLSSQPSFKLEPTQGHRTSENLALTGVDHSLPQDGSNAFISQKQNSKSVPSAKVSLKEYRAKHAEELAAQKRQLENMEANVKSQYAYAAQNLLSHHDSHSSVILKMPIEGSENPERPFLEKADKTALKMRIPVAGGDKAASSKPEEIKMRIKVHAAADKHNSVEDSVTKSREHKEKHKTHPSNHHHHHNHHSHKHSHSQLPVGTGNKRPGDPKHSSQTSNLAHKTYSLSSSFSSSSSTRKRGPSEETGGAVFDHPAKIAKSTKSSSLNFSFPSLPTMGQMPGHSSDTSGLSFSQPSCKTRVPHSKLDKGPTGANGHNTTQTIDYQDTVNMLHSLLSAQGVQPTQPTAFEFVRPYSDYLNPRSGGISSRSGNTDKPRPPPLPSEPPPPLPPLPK

IC50 (CDK9/CycT1) [nM] | Selectivity high ATP CDK9 over high ATP CDK2: IC50 (high ATP CDK2)/IC50 (high ATP CDK9) (CDK9/CycT1) | IC50 (A2780 cells) [nM] | IC50 (CDK2/CycE) [nM] | IC50 (A2780 cells; Homo sapiens, A2780, 72 h) [nM] | Compound
4 | 173 | 25 | 691 | – | CC1CCCCOc2cc(ccc2F)-c2cc(ncc2F)Nc2cc(CS(C)(=O)=O)cc(n2)O1 (single isomer, unassigned) [Example 29, 3,21-difluoro-14-methyl-10-[(methylsulfonyl)methyl]-13,19-dioxa-5,7,25-triazatetracyclo[18.3.1.1^2,6.1^8,12]hexacosa-1(24),2(26),3,5,8(25),9,11,20,22-nonaene]
7 | 667 | – | 4670 | 346 | CSCc1cc2nc(c1)OC(C)CCCOc1cc(ccc1F)-c1cc(ncc1F)N2 (racemic) [Example 11, (rac)-3,20-difluoro-14-methyl-10-[(methylsulfanyl)methyl]-13,18-dioxa-5,7,24-triazatetracyclo[17.3.1.1^2,6.1^8,12]pentacosa-1(23),2(25),3,5,8(24),9,11,19,21-nonaene]
18 | 277 | 146 | 4980 | – | CC1CCCCCOc2cc(ccc2F)-c2cc(ncc2F)Nc2cc(CS(C)(=O)=O)cc(n2)O1 (single isomer, unassigned) [Example 32, 3,22-difluoro-14-methyl-10-[(methylsulfonyl)methyl]-13,20-dioxa-5,7,26-triazatetracyclo[19.3.1.1^2,6.1^8,12]hexacosa-1 (25),2(27),3,5,8(26),9,11,21,23-nonaene]
3 | 540 | 16 | 1620 | – | CC1CCCOc2cc(ccc2F)-c2cc(ncc2F)Nc2cc(CS(C)(=N)=O)cc(n2)O1 (single isomer, unassigned) [Example 15, 3,20-difluoro-14-methyl-10-[(S-methylsulfonimidoyl)methyl]-13,18-dioxa-5,7,24-triazatetracyclo[17.3.1.1^2,6.1^8,12]pentacosa-1(23),2(25),3,5,8(24),9,11,19,21-nonaene]
4 | 3250 | – | 13000 | 53 | CC1CCCCCOc2cc(ccc2F)-c2cc(ncc2F)Nc2cc(CS(C)(=N)=O)cc(n2)O1 (single isomer, unassigned) [Example 26, 3,22-difluoro-14-methyl-10-[(S-methylsulfonimidoyl)methyl]-13,20-dioxa-5,7,26-triazatetracyclo[19.3.1.1^2,6.1^8,12]heptacosa-1(25),2(27),3,5,8(26),9,11,21,23-nonaene]
3 | 503 | 23 | 1510 | – | CC1CCCOc2cc(ccc2F)-c2cc(ncc2F)Nc2cc(CS(C)(=N)=O)cc(n2)O1 (single isomer, unassigned) [Example 14, 3,20-difluoro-14-methyl-10-[(S-methylsulfonimidoyl)methyl]-13,18-dioxa-5,7,24-triazatetracyclo[17.3.1.1^2,6.1^8,12]pentacosa-1(23),2(25),3,5,8(24),9,11,19,21-nonaene]
3 | 1196 | 55 | 3590 | – | CC1CCCCOc2cc(ccc2F)-c2cc(ncc2F)Nc2cc(CS(C)(=O)=O)cc(n2)O1 (single isomer, unassigned) [Example 30, 3,21-difluoro-14-methyl-10-[(methylsulfonyl)methyl]-13,19-dioxa-5,7,25-triazatetracyclo[18.3.1.1^2,6.1^8,12]hexacosa-1(24),2(26),3,5,8(25),9,11,20,22-nonaene]
